Measurements reported in ChEMBL document CHEMBL6153080, “Synthesis and Chemical Structure of the Cyclic Heptapeptide Stylissamide H” (J Nat Prod, 2025).

Test system: HeLa
Test: Cytotoxicity against human HeLa cells incubated for 24 hrs by WST-8 assay
Type: functional, cell-based

| SMILES | EC50 |
| --- | --- |
| CCC(C)[C@@H]1NC(=O)[C@@H]2CCCN2C(=O)[C@H](Cc2c[nH]c3ccccc23)NC(=O)[C@@H]2CCCN2C(=O)[C@@H](C(C)C)NC(=O)[C@H](Cc2ccccc2)NC(=O)[C@H](CO)NC1=O (single isomer, unassigned) | 61 µM |
| CC[C@H](C)[C@@H]1NC(=O)[C@@H]2CCCN2C(=O)[C@H](Cc2c[nH]c3ccccc23)NC(=O)[C@@H]2CCCN2C(=O)[C@H](C(C)C)NC(=O)[C@H](Cc2ccccc2)NC(=O)[C@H](CO)NC1=O | 78 µM |
